Source: US20020128231A1 (priority 2000, published 2002)

How the values were obtained:
[1] = system: MDR1-expressing NIH 3T3 cells; test: Cytotoxicity (MTT) assay: modulation of drug cytotoxicity in multidrug resistant cells; settings: for Modulation of Drug Resistance (percentage increase in doxorubicin cytotoxicity in the presence of the compounds versus in their absence): compound 5 μM, 50 nM doxorubicin, 72 hours, MTT
Procedure: Cytotoxicity assays were performed with many of the compounds of Formula I to verify their usefulness as inhibitors of P-gp.
Parental NIH3T3 Swiss mouse embryo cell line was obtained from American Type Culture Collection and was grown in Dulbecco's Modified Eagles Medium supplemented with 4.5 g/L glucose, 10% fetal bovine serum, 2 mM L-glutamine, and 0.01 mg/ml gentamicin. […] All cells were maintained in a humidified atmosphere with 5% CO2 at 37° C.
Parental and MDR1-expressing NIH 3T3 cells were plated at a density of 2.5-3.0×10^3 cells/well in 96-well microtiter plates and were exposed to 50 nM of doxoriubicin, 7.5 nM vinblastine, 75 nM colchicine or 300 nM paclitaxel for 72 hours. Cell viability was determined with the colorimetric MTT (3-(4,5-dimethylthiazol-2-yl)-2,5-diphenyl tetrazolium) assay as previously described (Mosmann T., J. Immunol. Methods, 65: 55-63 (1983); Hansen M. B. et al., J. Immunol. Methods, 119: 203-210 (1989)) and the absorbance was measured at 570 nm.

[2] = target: P-glycoprotein (Homo sapiens, UniProt P08183); test: Rhodamine 123 transport assay across HCT-8 cell monolayers; settings: compound 10 μM, Rh123 15 μM, HCT-8 cells; for inhibition at 10 μM: human, HCT-8 cell monolayers in Transwell dishes, probe Rhodamine 123 (15 μM), % Inhibition of R123 Transport
P-glycoprotein, sequence (P08183 whole entry): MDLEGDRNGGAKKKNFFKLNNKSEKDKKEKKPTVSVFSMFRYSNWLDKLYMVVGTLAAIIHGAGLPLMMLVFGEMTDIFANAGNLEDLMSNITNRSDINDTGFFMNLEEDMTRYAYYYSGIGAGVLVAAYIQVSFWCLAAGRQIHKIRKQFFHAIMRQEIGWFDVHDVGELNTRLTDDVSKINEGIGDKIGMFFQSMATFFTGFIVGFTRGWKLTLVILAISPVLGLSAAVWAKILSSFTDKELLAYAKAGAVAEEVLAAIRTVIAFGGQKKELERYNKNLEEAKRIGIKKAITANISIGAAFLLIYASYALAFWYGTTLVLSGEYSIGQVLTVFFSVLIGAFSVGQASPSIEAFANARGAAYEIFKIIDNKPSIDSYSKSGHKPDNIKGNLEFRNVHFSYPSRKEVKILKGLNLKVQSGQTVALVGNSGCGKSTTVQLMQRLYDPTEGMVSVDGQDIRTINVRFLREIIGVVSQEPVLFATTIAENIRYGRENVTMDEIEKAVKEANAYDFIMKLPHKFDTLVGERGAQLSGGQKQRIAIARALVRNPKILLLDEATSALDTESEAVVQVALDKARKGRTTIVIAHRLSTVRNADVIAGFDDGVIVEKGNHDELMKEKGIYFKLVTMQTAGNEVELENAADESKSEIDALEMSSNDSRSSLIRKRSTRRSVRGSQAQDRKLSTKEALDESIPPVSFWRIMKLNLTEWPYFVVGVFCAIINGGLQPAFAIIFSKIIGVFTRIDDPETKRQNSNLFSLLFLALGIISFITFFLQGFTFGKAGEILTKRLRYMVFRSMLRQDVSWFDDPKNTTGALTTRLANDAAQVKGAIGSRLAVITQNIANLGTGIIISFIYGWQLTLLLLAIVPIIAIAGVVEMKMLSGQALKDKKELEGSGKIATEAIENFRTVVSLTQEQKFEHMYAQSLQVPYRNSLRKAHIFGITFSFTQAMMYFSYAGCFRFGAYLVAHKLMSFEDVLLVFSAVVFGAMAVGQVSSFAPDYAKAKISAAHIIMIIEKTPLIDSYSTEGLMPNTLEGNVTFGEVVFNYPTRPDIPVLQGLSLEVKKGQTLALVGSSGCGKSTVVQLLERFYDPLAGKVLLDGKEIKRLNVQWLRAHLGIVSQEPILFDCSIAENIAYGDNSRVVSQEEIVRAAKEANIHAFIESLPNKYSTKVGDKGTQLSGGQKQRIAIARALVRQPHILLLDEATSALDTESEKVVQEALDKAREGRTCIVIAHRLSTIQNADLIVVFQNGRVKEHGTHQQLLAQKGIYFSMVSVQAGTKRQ
Procedure: The human ileocecal adenocarcinoma cell line HCT-8 was grown in RPMI-1640 medium supplemented with 10% horse serum, 1 mM sodium pyruvate and 0.01 mg/ml gentamicin. All cells were maintained in a humidified atmosphere with 5% CO2 at 37° C.
Rhodamine 123 transport was examined as previously described (Hunter J. et al., Simmons, Br. J. Cancer, 64: 437444 (1991); Kim A. E. et al., J. Pharm. Exp. Ther., 286: 1439-1445 (1998)) using HCT-8 cells. Particularly, cells were grown in 6 well Corning Transwell dishes until a tight monolayer was formed. Rh123 was added at a final concentration of 15 μM to the basal or apical compartments and 200 μl samples were taken at the indicated times from the opposite chamber. Fluorescence of Rh123 in the media samples was measured using a fluorescence plate reader with an excitation wavelength of 485 nm and an emission wavelength of 530 nm.

| inhibition at 10 μM [2] | % Inhibition of R123 Transport [2] | SMILES | Modulation of Drug Resistance (percentage increase in doxorubicin cytotoxicity in the presence of the compounds versus in their absence) [1] | dose responsive sensitization of multidrug resistant cells to doxorubicin (FIG. 5) ([1]; doxorubicin 0-750 nM, compound 50-1000 nM) | dose response inhibition of P-glycoprotein in the presence of vinblastine (FIG. 6) ([1]; vinblastine 0-100 nM, compound 50-1000 nM) |
| --- | --- | --- | --- | --- | --- |
| 84% | – | COCC1C(CCN2CCN(c3ccc(OC)cc3)CC2)c2cc(OC)c(OC)cc2C1c1ccc(OC)c(OC)c1 (centres unmarked) [AV-199, 1-{-2-[3-(3,4-dimethoxyphenyl)-5,6-dimethoxy-2-methoxymethyl-indan-1-yl]-ethyl}-4-(4-methoxyphenyl)-piperazine] | 61.63% | – | – |
| 86.4% | – | COCC1C(CCN2CCN(C(=O)OCc3ccccc3)CC2)c2cc(OC)c(OC)cc2C1c1ccc(OC)c(OC)c1 (centres unmarked) [AV-200, 4-{2-[3-(3,4-dimethoxyphenyl)-5,6-dimethoxy-2-methoxymethyl-indan-1-yl]-ethyl}-piperazine-1-carboxylic acid benzyl ester] | 61.40% | – | – |
| 83.8% | – | COCC1C(CCN2CCN(c3ccc(F)cc3)CC2)c2cc(OC)c(OC)cc2C1c1ccc(OC)c(OC)c1 (centres unmarked) [AV-201, 1-{-2-[3-(3,4-dimethoxyphenyl)-5,6-dimethoxy-2-methoxymethyl-indan-1-yl]-ethyl}-4-(4-fluorophenyl)-piperazine] | 66.44% | – | – |
| 88.4% | – | COCC1C(CCN2CCN(c3ccccc3OC)CC2)c2cc(OC)c(OC)cc2C1c1ccc(OC)c(OC)c1 (centres unmarked) [AV-202, 1{-2-[3-(3,4-dimethoxyphenyl)-5,6-dimethoxy-2-methoxymethyl-indan-1-yl]-ethyl}-4-(2-methoxyphenyl)-piperazine] | 59.68% | dose responsive sensitization | dose response data inhibition of P-glycoprotein |
| – | 77.9% | COCC1C(CCN2CCN(c3ccc(C(C)=O)cc3)CC2)c2cc(OC)c(OC)cc2C1c1ccc(OC)c(OC)c1 (centres unmarked) [AV-203] | 84.65% | – | – |
| 53.6% | – | CCOc1ccccc1N1CCN(C(=O)CC2c3cc(OC)c(OCc4ccccc4)cc3C(c3ccc(OCc4ccccc4)c(OC)c3)C2C(=O)N2CCN(c3ccccc3OCC)CC2)CC1 (centres unmarked) [AV-205, 2-{5-benzyloxy-3-(4-benzyloxy-3-methoxyphenyl)-2-{4-(2-ethoxyphenyl)-piperazine-1-carbonyl}-6-methoxy-indan-1-yl}-1-{4-(2-ethoxyphenyl)-piperazin-1-yl]-ethanone] | 35.56% | – | – |
| 88.2% | – | CCOc1ccccc1N1CCN(C(=O)CC2c3cc(OC)c(O)cc3C(c3ccc(O)c(OC)c3)C2C(=O)N2CCN(c3ccccc3OCC)CC2)CC1 (centres unmarked) [AV-206, 2-[2-[4-(2-ethoxyphenyl)-piperazine-1-carbonyl]-5-hydroxy-3-(4-hydroxy-3-methoxyphenyl)-6-methoxy-indan-1-yl]-1-[4(2-ethoxyphenyl)-piperazin-1-yl]-ethanone] | 54.78% | – | – |
| 89.7% | – | CCOc1ccc(C2c3cc(OCC)c(OC)cc3C(CC(=O)N3CCN(c4ccccc4OCC)CC3)C2C(=O)N2CCN(c3ccccc3OCC)CC2)cc1OC (centres unmarked) [AV-207, 2-{5-ethoxy-3-(4-ethoxy-3-methoxyphenyl)-2-[4-(2-ethoxyphenyl)-piperazine-1-carbonyl]-6-methoxy-indan-1-yl}-1-[4-(2-ethoxyphenyl)-piperazin-1-yl]-ethanone] | 55.08% | – | – |
| 47.3% | – | CCCCCCCCCCOc1ccc(C2c3cc(OCCCCCCCCCC)c(OC)cc3C(CC(=O)N3CCN(c4ccccc4OCC)CC3)C2C(=O)N2CCN(c3ccccc3OCC)CC2)cc1OC (centres unmarked) [AV-209, 2-{5-decyloxy-3-(4-decyloxy-3-methoxyphenyl)-2-[4-(2-ethoxyphenyl)-piperazine-1-carbonyl]-6-methoxy-indan-1-yl}-1-[4-(2-ethoxyphenyl)-piperazin-1-yl]-ethanone] | 1.16% | – | – |
| – | 37.58% | COc1ccc(C2c3cc(OC)c(OC)cc3C(CCNC(=O)NCc3ccccc3)C2CNC(=O)NCc2ccccc2)cc1OC (centres unmarked) [AV-234, 10-benzyl-3-{2-[2-(3-benzyl-ureidomethyl)-3-(3,4-dimethoxyphenyl)-5,6-dimethoxy-indan-1-yl]-ethyl}-urea] | 12.50% | – | – |
| 55.9% | – | CCOc1ccccc1N1CCN(C(=O)CC2c3cc(OC)c(OC)cc3C(c3ccc(OC)c(OC)c3)C2C(=O)O)CC1 (centres unmarked) [AV-250, 1-(3,4-Dimethoxy-phenyl)-3-{2-[4-(2-ethoxy-phenyl)-piperazin-1-yl]-2-oxo-ethyl}-5,6-dimethoxy-indan-2-carboxylic acid] | −7.1% | – | – |
| 64.2% | – | CCCCCOc1ccc(C2c3cc(OCCCCC)c(OC)cc3C(CC(=O)N3CCN(c4ccccc4OCC)CC3)C2C(=O)N2CCN(c3ccccc3OCC)CC2)cc1OC (centres unmarked) [AV-252, 2-[2-[4-(2-Ethoxy-phenyl)-piperazine-1-carbonyl]-6-methoxy-3-(3-methoxy-4-pentyloxy-phenyl)-5-pentyloxy-indan-1-yl]-1-[4-(2-ethoxy-phenyl)-piperazin-1-yl]ethanone] | −0.5% | – | – |
| – | 92.03% | CCOc1ccc(C2c3cc(OCC)c(OCC)cc3C(CC(=O)N3CCN(c4ccccc4OCC)CC3)C2C(=O)N2CCN(c3ccccc3OCC)CC2)cc1OCC (centres unmarked) [AV-253] | 19.8% | – | – |
| – | 18.70% | CCCOc1ccc(C2c3cc(OCCC)c(OCCC)cc3C(CC(=O)N3CCN(c4ccccc4OCC)CC3)C2C(=O)N2CCN(c3ccccc3OCC)CC2)cc1OCCC (centres unmarked) [AV-254, 2-{3-(3,4-Dipopoxy-phenyl)-2-[4-(2-ethoxy-phenyl)-piperazine-1-carbonyl]-5,6-dipropoxy-indan-1-yl}-1-[4-(2-ethoxy-phenyl)-piperazin-1-yl]-ethanone] | 4.1% | – | – |
| – | 75.61% | CCOc1ccccc1N1CCN(C(=O)CC2c3cc(OC)c(OC)cc3C(c3ccc(OC)c(OC)c3)C2C(=O)N2CCN(C)CC2)CC1 (centres unmarked) [AV-256] | 8.7% | – | – |
| 80.4% | – | CCOc1ccccc1N1CCN(C(=O)CC2c3cc(OC)c(OC)cc3C(c3ccc(OC)c(OC)c3)C2C(=O)N(C)C)CC1 (centres unmarked) [AV-257, 1-(3,4-Dimethoxy-phenyl)-3-{2-[4-(2-ethoxy-phenyl)-piperazin-1-yl]-2-oxo-ethyl}-5,6-dimethoxy-indan-2-carboxylic acid dimethylamide] | 8.7% | – | – |
| – | 84.87% | COc1ccc(C2c3cc(OC)c(OC)cc3C(CCNC(=O)c3ccc(C(C)(C)C)cc3)C2CNC(=O)c2ccc(C(C)(C)C)cc2)cc1OC (centres unmarked) [AV-259] | 3.9% | – | – |
| – | 73.84% | COc1ccc(C2c3cc(OC)c(OC)cc3C(CCNC(=O)c3ccc(OC(F)(F)F)cc3)C2CNC(=O)c2ccc(OC(F)(F)F)cc2)cc1OC (centres unmarked) [AV-260] | 2.1% | – | – |
| – | 83.47% | CCCc1ccc(C(=O)NCCC2c3cc(OC)c(OC)cc3C(c3ccc(OC)c(OC)c3)C2CNC(=O)c2ccc(CCC)cc2)cc1 (centres unmarked) [AV-262] | 18.0% | – | – |
| – | 80.78% | COc1ccc(C2c3cc(OC)c(OC)cc3C(CCNC(=O)c3ccc(Br)cc3)C2CNC(=O)c2ccc(Br)cc2)cc1OC (centres unmarked) [AV-263] | 12.2% | – | – |
| – | 83.51% | COc1ccc(C2c3cc(OC)c(OC)cc3C(CCNC(=O)c3ccccc3)C2CNC(=O)c2ccccc2)cc1OC (centres unmarked) [AV-264] | 6.3% | – | – |

| SMILES | inhibition at 10 μM [2] | % Inhibition of R123 Transport [2] | Modulation of Drug Resistance (percentage increase in doxorubicin cytotoxicity in the presence of the compounds versus in their absence) [1] | dose responsive sensitization of multidrug resistant cells to doxorubicin (FIG. 5) ([1]; doxorubicin 0-750 nM, compound 50-1000 nM) | dose response inhibition of P-glycoprotein in the presence of vinblastine (FIG. 6) ([1]; vinblastine 0-100 nM, compound 50-1000 nM) |
| --- | --- | --- | --- | --- | --- |
| CCCCOc1ccc(C2c3cc(OCCCC)c(OC)cc3C(CC(=O)N3CCN(c4ccccc4OCC)CC3)C2C(=O)N2CCN(c3ccccc3OCC)CC2)cc1OC (centres unmarked) [AV-208, 2-{5-butoxy-3-(4-butoxy-3-methoxyphenyl)-2-[4-(2-ethoxyphenyl)-piperazine-1-carbonyl]-6-methoxy-indan-1-yl}-1-[4-(2-ethoxyphenyl)-piperazin-1-yl]-ethanone] | 86.1% | – | 51.78% | – | – |
| COc1ccc(C2c3cc(OC)c(OC)cc3C(CCNS(=O)(=O)c3ccccc3)C2CNS(=O)(=O)c2ccccc2)cc1OC (centres unmarked) [AV-223, N-{2-[(2-N-methyl)-benzenesulfonamide-3-(3,4-dimethoxyphenyl)-5,6-dimethoxy-indan-1-yl}-ethyl}-benzensulfonamide] | – | 74.50% | 36.55% | – | – |
| CCCCOc1ccc(C2c3cc(OCCCC)c(OCCCC)cc3C(CC(=O)N3CCN(c4ccccc4OCC)CC3)C2C(=O)N2CCN(c3ccccc3OCC)CC2)cc1OCCCC (centres unmarked) [AV-255, 2-{3-(3,4-Dibutoxy-phenyl)-2-[4-(2-ethoxy-phenyl)-piperazine-1-carbonyl]-5,6-dibutoxy-indan-1-yl}-1-[4-(2-ethoxy-phenyl)-piperazin-1-yl]-ethanone] | 96% | – | 6.7% | – | – |
